Source: US9844546B2, “Antibody against human HIF hydroxylase” (OXFORD UNIVERSITY INNOVATION LIMITED, priority 2001, dated 2017)
“Also recorded” adds a separate entry of the source.

Experiments:
[1] = tested on: Hep3B and U2OS cells; experiment: Immunoblot of HIF-1α and CA-9 in cells exposed to inhibitor; assay type: cell-based, human; conditions: 0.1 or 1 mM, 6 hours; for HIF-1α level (immunoblot): normoxic culture
From the text: We went on to test a series of 2-oxoglutarate analogues which act as competitive inhibitors of this class of enzyme (29) for ability to inhibit HIF-PH as assessed by the ability of cell extracts to modify either HIF polypeptide (19:WT) or a HIF fusion protein (Gal/HIF-1α549-582/VP16) so as to promote pVHL capture. Concordant results were obtained with both sources of HIF sequence. In one such experiment the effect of N-oxalylglycine on pVHL capture by a biotinylated HIF polypeptides as substrate was monitored. The WT:19 and 19:Pro564Hyp polypeptides described above were used as substrates. […] Inhibition by N-Oxalylglycine was overcome by addition of 5 mM 2-oxoglutarate. As previously, 19:Pro564Hyp captured pVHL efficiently without modification by cell extract, and this was not influenced by exposure to N-oxalylglycine. […] We also used a 2-oxoglutarate dependent dioxygenase, phytanoyl-CoA α-hydroxylase (30), together with a readily available unnatural substrate (isovaleryl CoA) (31) to deplete the cell extract of 2-oxoglutarate produced by the citric acid cycle; as predicted, this prevented the subsequent modification of HIF polypeptide. The effect of dimethyl-oxalyglycine on HIF-1α expression was also studied. HIF-1α immunoblot analysis of extracts of Hep3B and U2OS cells exposed to dimethyl-oxalylgylcine (0, 0.1 or 1.0 mM) for 6 hours was carried out.
Hep3B and U2OS cells were exposed to either 0.1 mM or 1 mM dimethyloxalylglycine for 6 hours, harvested and assayed by immunoblotting (Western blotting) for changes in the level of HIF-1α and CA-9 expression. Controls, where no inhibitor was added, were also performed. […] Upregulation of HIF-1α increased with increasing concentration of dimethyloxalylglycine, whilst the level of CA-9 expression was similar after exposure to both 0.1 and 1 mM of dimethyloxalylglycine.

[2] = tested on: HIF hydroxylase (HPH activity); experiment: HIF hydroxylase (HPH) inhibition, statements of the description; assay type: biochemical
[3] = tested on: C. elegans; experiment: Immunoblot of ceHIF (HIF-1) in extracts of treated worms; assay type: in vivo; conditions: 1 mM, 21% oxygen, wild type worms
Experimental: Immunoblots of ceHIF levels in extracts of c. elegans were carried out to monitor regulation by hypoxia and iron chelation. Firstly, the oxygen dependence of protein induction was analysed. Worms were grown on plates in bell jars flushed with air (N), or with oxygen/balance nitrogen having an oxygen concentration of 5%, 1%, 0.5% or 0.1% for 18 hrs. A graded increase in protein level was seen as the oxygen level was reduced below 5% with the highest level of induction at 0.5 and 0.1% oxygen concentration. The time course of protein induction was then studied. Worms were grown in bell jars flushed with a 0.1% oxygen/balance nitrogen mixture for 0, 4, 8, 16 or 24 hrs before preparation of extracts. […] The time course of protein decay on re-oxygenation was then assessed. Worms were grown in bell jars flushed with air (N) or a 0.1% oxygen/balance nitrogen mixture. Extracts were made either immediately, or after 4 and 8 minutes of re-oxygenation. Decay of ceHIF protein was very rapid on re-oxygenation. […] A time course RNAse protection assay showing cehif mRNA levels in worms exposed to 0.1% oxygen/balance nitrogen for 0, 4, 8, 16 and 24 hrs was carried out. No induction of ceHIF mRNA by hypoxia was seen. […] Induction by iron chelation was also studied in C. elegans. […]

inhibition of HIF hydroxylase / HPH [2]: act as inhibitors
SMILES: COC(=O)CNC(=O)C(=O)OC [dimethyloxalylglycine]
CA-9 expression (immunoblot) [1]: Clear upregulation | HIF-1α level (immunoblot) [1]: increase intracellular levels of HIF-1; also recorded: Clear upregulation | HIF-1α level (immunoblot) ([1]; listed as dimethyl-oxalylgylcine): strongly induced | ceHIF (HIF-1) protein level in normoxia [3]: substantial increase in the amount of immunodetectable ceHIF; also recorded: strongly induced HIF-1
